Results published in ChEMBL document CHEMBL3808374, “Discovery of 3-Substituted 1H-Indole-2-carboxylic Acid Derivatives as a Novel Class of CysLT1 Selective Antagonists” (ACS Med Chem Lett, 2016).
Active and inactive are the calls of the source. The calls are words filed in the database; no cut-off is given here.

The compounds below were run against T1, Cysteinyl leukotriene receptor 1 (Mus musculus) (UniProt Q99JA4) (assay: (§1) Antagonist activity at LTD4 receptor in splenocytes isolated from MOG(35 to 55 residues) containing CFA immunized and pertussis toxin-induced C57BL/6 mouse experimental autoimmune encephalomyelitis model assessed as inhibition of LTD4-induced leukocyte chemotaxis at 10 nM after 1.5 hrs by flow cytometric analysis). Conditions: not given.
T1 sequence (whole entry): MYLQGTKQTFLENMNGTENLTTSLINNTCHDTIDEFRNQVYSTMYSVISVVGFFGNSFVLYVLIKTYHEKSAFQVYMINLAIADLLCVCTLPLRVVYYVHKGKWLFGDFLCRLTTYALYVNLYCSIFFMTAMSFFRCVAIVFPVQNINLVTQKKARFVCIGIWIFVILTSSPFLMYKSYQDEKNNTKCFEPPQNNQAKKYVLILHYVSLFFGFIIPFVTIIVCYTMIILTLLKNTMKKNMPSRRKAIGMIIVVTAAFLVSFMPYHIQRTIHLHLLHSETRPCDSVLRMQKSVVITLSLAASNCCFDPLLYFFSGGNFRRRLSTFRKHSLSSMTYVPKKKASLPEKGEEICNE
Format: cell-based

| SMILES | inhibition |
| --- | --- |
| O=C(/C=C/c1c(C(=O)O)[nH]c2ccc(F)cc12)Nc1cccc(/C=C/c2ccc3ccc(Cl)cc3n2)c1 | Active |
| COc1cccc2c(/C=C/C(=O)Nc3cccc(/C=C/c4ccc5ccc(Cl)cc5n4)c3)c(C(=O)O)[nH]c12 | Active |

The compounds below were run against T2, Cysteinyl leukotriene receptor 2 (Homo sapiens, UniProt Q9NS75) (assay: Antagonist activity against CysLT2 receptor (unknown origin) expressed in HEK293 cells assessed as inhibition of LTD4-induced calcium mobilization pre-incubated for 10 mins before LTD4 addition by Fluo-4 AM dye based fluorimetric assay). Conditions: not given.
T2 sequence (Q9NS75 whole entry): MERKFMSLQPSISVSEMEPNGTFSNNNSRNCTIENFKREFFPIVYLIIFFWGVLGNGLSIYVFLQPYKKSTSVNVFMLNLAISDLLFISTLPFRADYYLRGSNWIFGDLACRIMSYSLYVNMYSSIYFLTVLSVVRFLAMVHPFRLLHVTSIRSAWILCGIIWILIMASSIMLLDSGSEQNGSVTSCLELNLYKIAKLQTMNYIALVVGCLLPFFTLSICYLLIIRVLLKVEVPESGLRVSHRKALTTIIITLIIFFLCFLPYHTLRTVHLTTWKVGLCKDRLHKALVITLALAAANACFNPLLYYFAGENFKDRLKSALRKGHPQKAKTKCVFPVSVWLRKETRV
Format: functional, cell-based

| SMILES | IC50 [µM] |
| --- | --- |
| COc1ccc2[nH]c(C(=O)O)c(/C=C/C(=O)Nc3cccc(/C=C/c4ccc5ccc(Cl)cc5n4)c3)c2c1 | 46 |
| O=C(/C=C/c1c(C(=O)O)[nH]c2ccccc12)OCc1cccc(/C=C/c2ccc3ccc(Cl)cc3n2)c1 | > 100 |
| O=C(/C=C/c1c(C(=O)O)[nH]c2ccc(F)cc12)Nc1cccc(/C=C/c2ccc3ccc(Cl)cc3n2)c1 | 46 |
| COc1cccc2c(/C=C/C(=O)Nc3cccc(/C=C/c4ccc5ccc(Cl)cc5n4)c3)c(C(=O)O)[nH]c12 | 15 |
| O=C(/C=C/c1c(C(=O)O)[nH]c2cc(Cl)cc(Cl)c12)OC1CCCCC1 | > 100 |
| CC(C)CCCOC(=O)/C=C/c1c(C(=O)O)[nH]c2cc(Cl)cc(Cl)c12 | > 100 |
| O=C(/C=C/c1c[nH]c2cc(Cl)cc(Cl)c12)OCc1cccc(/C=C/c2ccc3ccc(Cl)cc3n2)c1 | > 100 |
| O=C(/C=C/c1c(C(=O)O)[nH]c2cccc(Cl)c12)Nc1cccc(/C=C/c2ccc3ccc(Cl)cc3n2)c1 | 36 |
| N#CCCCCOC(=O)/C=C/c1c(C(=O)O)[nH]c2cc(Cl)cc(Cl)c12 | > 100 |
| O=C(/C=C/c1c(C(=O)O)[nH]c2cc(F)cc(F)c12)Nc1cccc(/C=C/c2ccc3ccc(Cl)cc3n2)c1 | 76 |
| O=C(/C=C/c1c(C(=O)O)[nH]c2cc(Cl)cc(Cl)c12)OCCc1ccccc1 | > 100 |
| O=C(/C=C/c1c(C(=O)O)[nH]c2cc(Cl)cc(Cl)c12)OCCCCc1ccccc1 | > 100 |
| O=C(/C=C/c1c(C(=O)O)[nH]c2c(Cl)cccc12)Nc1cccc(/C=C/c2ccc3ccc(Cl)cc3n2)c1 | > 100 |
| O=C(/C=C/c1c(C(=O)O)[nH]c2ccccc12)Nc1cccc(/C=C/c2ccc3ccc(Cl)cc3n2)c1 | 58 |
| O=C(/C=C/c1c(C(=O)O)[nH]c2cc(Cl)cc(Cl)c12)OCCCc1ccccc1 | > 100 |
| COc1ccc2c(/C=C/C(=O)Nc3cccc(/C=C/c4ccc5ccc(Cl)cc5n4)c3)c(C(=O)O)[nH]c2c1 | > 100 |
| O=C(O)c1[nH]c2ccccc2c1C(=O)Nc1cccc(/C=C/c2ccc3ccc(Cl)cc3n2)c1 | 23 |
| O=C(CCc1c(C(=O)O)[nH]c2ccccc12)Nc1cccc(/C=C/c2ccc3ccc(Cl)cc3n2)c1 | 50 |
| O=C(/C=C/c1c(C(=O)O)[nH]c2cc(Cl)cc(Cl)c12)OCc1ccccc1 | > 100 |
| O=C(/C=C/c1c(C(=O)O)[nH]c2cc(Cl)ccc12)Nc1cccc(/C=C/c2ccc3ccc(Cl)cc3n2)c1 | 87 |
| O=C(/C=C/c1c(C(=O)O)[nH]c2cc(Cl)cc(Cl)c12)OCC1CCCCC1 | > 100 |
| O=C(/C=C/c1c(C(=O)O)[nH]c2ccc(Cl)cc12)Nc1cccc(/C=C/c2ccc3ccc(Cl)cc3n2)c1 | > 100 |
| O=C(/C=C/c1c(C(=O)O)[nH]c2cc(Cl)cc(Cl)c12)Oc1ccccc1 | > 100 |
| CCCCCOC(=O)/C=C/c1c(C(=O)O)[nH]c2cc(Cl)cc(Cl)c12 | > 100 |
| O=C(/C=C/c1c(C(=O)O)[nH]c2cc(Cl)cc(Cl)c12)Nc1cccc(/C=C/c2ccc3ccc(Cl)cc3n2)c1 | > 100 |
| O=C(/C=C/c1c(C(=O)O)[nH]c2cc(Cl)cc(Cl)c12)OCc1cccc(/C=C/c2ccc3ccc(Cl)cc3n2)c1 | > 100 |

The compounds below were run against T1, Cysteinyl leukotriene receptor 1 (Mus musculus) (assay: as §1, with “100” for “10”). Conditions: not given.
Format: cell-based

| SMILES | inhibition [%] |
| --- | --- |
| O=C(/C=C/c1c(C(=O)O)[nH]c2ccc(F)cc12)Nc1cccc(/C=C/c2ccc3ccc(Cl)cc3n2)c1 | > 50 |
| COc1cccc2c(/C=C/C(=O)Nc3cccc(/C=C/c4ccc5ccc(Cl)cc5n4)c3)c(C(=O)O)[nH]c12 | > 50 |
| O=C(/C=C/c1c(C(=O)O)[nH]c2ccccc12)Nc1cccc(/C=C/c2ccc3ccc(Cl)cc3n2)c1 | > 50 |
| COc1ccc2c(/C=C/C(=O)Nc3cccc(/C=C/c4ccc5ccc(Cl)cc5n4)c3)c(C(=O)O)[nH]c2c1 | > 50 |

Each compound was assayed against T3, Cysteinyl leukotriene receptor 1 (Homo sapiens, UniProt Q9Y271) (assay: Antagonist activity against CysLT1 receptor (unknown origin) expressed in HEK293 cells assessed as inhibition of LTD4-induced calcium mobilization pre-incubated for 10 mins before LTD4 addition by Fluo-4 AM dye based fluorimetric assay). Conditions: not given.
T3 sequence (Q9Y271 whole entry): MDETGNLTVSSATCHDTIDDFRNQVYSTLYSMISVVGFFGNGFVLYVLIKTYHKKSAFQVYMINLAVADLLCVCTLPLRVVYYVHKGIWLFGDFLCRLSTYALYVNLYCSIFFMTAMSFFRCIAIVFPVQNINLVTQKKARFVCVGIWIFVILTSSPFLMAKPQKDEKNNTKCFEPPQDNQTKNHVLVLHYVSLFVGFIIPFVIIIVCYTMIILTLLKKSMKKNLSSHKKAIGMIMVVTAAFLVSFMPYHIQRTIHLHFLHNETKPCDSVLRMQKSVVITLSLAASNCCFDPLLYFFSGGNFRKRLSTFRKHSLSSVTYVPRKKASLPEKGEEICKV
Format: functional, cell-based

| SMILES | IC50 [µM] |
| --- | --- |
| O=C(O)c1ccc(OCCCc2ccc(OCCCCOc3ccccc3)cc2)c(C(=O)NC2CCCC(C(=O)O)C2)c1 (stereo unspecified) | > 2.5 |
| COc1ccc2[nH]c(C(=O)O)c(/C=C/C(=O)Nc3cccc(/C=C/c4ccc5ccc(Cl)cc5n4)c3)c2c1 | 0.025 |
| O=C(/C=C/c1c(C(=O)O)[nH]c2ccccc12)OCc1cccc(/C=C/c2ccc3ccc(Cl)cc3n2)c1 | 0.12 |
| O=C(/C=C/c1c(C(=O)O)[nH]c2ccc(F)cc12)Nc1cccc(/C=C/c2ccc3ccc(Cl)cc3n2)c1 | 0.0078 |
| COc1cccc2c(/C=C/C(=O)Nc3cccc(/C=C/c4ccc5ccc(Cl)cc5n4)c3)c(C(=O)O)[nH]c12 | 0.0059 |
| O=C(/C=C/c1c(C(=O)O)[nH]c2cc(Cl)cc(Cl)c12)OC1CCCCC1 | > 100 |
| CC(C)CCCOC(=O)/C=C/c1c(C(=O)O)[nH]c2cc(Cl)cc(Cl)c12 | > 100 |
| O=C(/C=C/c1c[nH]c2cc(Cl)cc(Cl)c12)OCc1cccc(/C=C/c2ccc3ccc(Cl)cc3n2)c1 | 31 |
| O=C(/C=C/c1c(C(=O)O)[nH]c2cccc(Cl)c12)Nc1cccc(/C=C/c2ccc3ccc(Cl)cc3n2)c1 | 0.067 |
| N#CCCCCOC(=O)/C=C/c1c(C(=O)O)[nH]c2cc(Cl)cc(Cl)c12 | > 100 |
| O=C(/C=C/c1c(C(=O)O)[nH]c2cc(F)cc(F)c12)Nc1cccc(/C=C/c2ccc3ccc(Cl)cc3n2)c1 | 0.038 |
| O=C(/C=C/c1c(C(=O)O)[nH]c2cc(Cl)cc(Cl)c12)OCCc1ccccc1 | > 100 |
| O=C(/C=C/c1c(C(=O)O)[nH]c2cc(Cl)cc(Cl)c12)OCCCCc1ccccc1 | > 100 |
| O=C(/C=C/c1c(C(=O)O)[nH]c2c(Cl)cccc12)Nc1cccc(/C=C/c2ccc3ccc(Cl)cc3n2)c1 | 0.016 |
| O=C(/C=C/c1c(C(=O)O)[nH]c2ccccc12)Nc1cccc(/C=C/c2ccc3ccc(Cl)cc3n2)c1 | 0.009 |
| O=C(/C=C/c1c(C(=O)O)[nH]c2cc(Cl)cc(Cl)c12)OCCCc1ccccc1 | > 100 |
| COc1ccc2c(/C=C/C(=O)Nc3cccc(/C=C/c4ccc5ccc(Cl)cc5n4)c3)c(C(=O)O)[nH]c2c1 | 0.012 |
| O=C(O)c1[nH]c2ccccc2c1C(=O)Nc1cccc(/C=C/c2ccc3ccc(Cl)cc3n2)c1 | 0.035 |
| O=C(CCc1c(C(=O)O)[nH]c2ccccc12)Nc1cccc(/C=C/c2ccc3ccc(Cl)cc3n2)c1 | 0.058 |
| O=C(/C=C/c1c(C(=O)O)[nH]c2cc(Cl)cc(Cl)c12)OCc1ccccc1 | > 100 |
| O=C(/C=C/c1c(C(=O)O)[nH]c2cc(Cl)ccc12)Nc1cccc(/C=C/c2ccc3ccc(Cl)cc3n2)c1 | 0.022 |
| O=C(/C=C/c1c(C(=O)O)[nH]c2cc(Cl)cc(Cl)c12)OCC1CCCCC1 | > 100 |
| O=C(/C=C/c1c(C(=O)O)[nH]c2ccc(Cl)cc12)Nc1cccc(/C=C/c2ccc3ccc(Cl)cc3n2)c1 | 0.017 |
| O=C(/C=C/c1c(C(=O)O)[nH]c2cc(Cl)cc(Cl)c12)Oc1ccccc1 | > 100 |
| CCCCCOC(=O)/C=C/c1c(C(=O)O)[nH]c2cc(Cl)cc(Cl)c12 | > 100 |
| O=C(/C=C/c1c(C(=O)O)[nH]c2cc(Cl)cc(Cl)c12)Nc1cccc(/C=C/c2ccc3ccc(Cl)cc3n2)c1 | 0.29 |
| O=C(/C=C/c1c(C(=O)O)[nH]c2cc(Cl)cc(Cl)c12)OCc1cccc(/C=C/c2ccc3ccc(Cl)cc3n2)c1 | 0.66 |

The compounds below were run against T1, Cysteinyl leukotriene receptor 1 (Mus musculus). Conditions: C57BL/6, at 1 µM.

| SMILES | inhibition [%] |
| --- | --- |
| CC(C)(O)c1ccccc1CC[C@@H](SCC1(CC(=O)O)CC1)c1cccc(/C=C/c2ccc3ccc(Cl)cc3n2)c1 | 50 |
| O=C(/C=C/c1c(C(=O)O)[nH]c2cc(Cl)cc(Cl)c12)OCc1cccc(/C=C/c2ccc3ccc(Cl)cc3n2)c1 | 50 |
